Experimental findings from patent US20070270436A1, “NOVEL AMINO- AND IMINO-ALKYLPIPERAZINES” (Recordati Ireland Limited, priority 2006, published 2007) are described below.

As usually defined, the Ki is the equilibrium dissociation constant of an inhibitor or competing ligand from its target.

The assay deals with T1, human 5HT1A-serotonergic receptor (Homo sapiens, UniProt P08908).
T1 construct: expressed in transfected cells; host or cells: HeLa (human), stably transfected; membranes
T1 sequence (P08908 1-422): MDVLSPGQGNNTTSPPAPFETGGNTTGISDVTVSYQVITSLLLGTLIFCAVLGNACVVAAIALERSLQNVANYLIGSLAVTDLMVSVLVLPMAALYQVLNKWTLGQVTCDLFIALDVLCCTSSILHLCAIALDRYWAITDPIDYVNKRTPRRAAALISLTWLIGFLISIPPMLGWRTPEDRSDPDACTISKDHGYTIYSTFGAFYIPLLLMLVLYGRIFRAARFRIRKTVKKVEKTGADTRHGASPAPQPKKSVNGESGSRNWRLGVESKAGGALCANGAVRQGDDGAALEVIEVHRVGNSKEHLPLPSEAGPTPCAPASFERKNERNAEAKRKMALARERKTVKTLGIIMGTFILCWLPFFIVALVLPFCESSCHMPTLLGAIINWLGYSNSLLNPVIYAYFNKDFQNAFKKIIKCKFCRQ
Nature of the assay: Radioligand binding to recombinant 5-HT1A receptor ([3H]8-OH-DPAT, HeLa cell membranes). The conditions noted are these: 1 nM [3H]8-OH-DPAT; Ki from IC50 by the Cheng equation; read-out: Ki (nM), binding affinity for 5HT1A receptor. As for the experimental part:
Genomic clone G-21 encoding the human 5HT1A-serotonergic receptor was stably transfected in a human cell line (HeLa). HeLa cells were grown as monolayers in Dulbecco's modified Eagle medium (DMEM), containing 10% fetal bovine serum and gentamycin (100 μg/ml) at 37° C. in a humidified atmosphere of 5% CO2 and air. The cells were detached from the growth flask at 95% confluence by a cell scraper and were lysed in cold 5 mM Tris and 5 mM EDTA buffer (pH 7.4). The homogenates were centrifuged at 40000×g×20 minutes and the pellets were resuspended in a small volume of cold 5 mM Tris and 5 mM EDTA buffer (pH 7.4) and immediately frozen and stored at −70° C. until use. On the day of experiment, the cell membranes were resuspended in incubation buffer: 50 mM Tris (pH 7.4), 2.5 mM MgCl2, 10 μM pargyline (Fargin et al., Nature 335, 358-360, 1988). The membranes were incubated in a final volume of 0.32 ml for 30 minutes at 30° C. with 1 nM [^3H]8-OH-DPAT, in the absence or presence of the test compounds. Non-specific binding was determined in the presence of 10 μM 5-HT. Incubation was stopped by addition of cold Tris buffer and rapid filtration through UniFilter GF/C plate.
The affinity of the tested compounds was evaluated as inhibition of specific binding of the radioligand to 5-HT1A receptor (IC50) by using the non-linear curve-fitting program Allfit (De Lean et al., Am. J. Physiol. 235, E97-E102 (1978)). The IC50 value was converted to an affinity constant (Ki) by the equation of Cheng et al., Biochem. Pharmacol. 22, 3099-3108 (1973).
For `CON=C(C)C(CCN1CCN(c2cccc3c2OCCO3)CC1)c1ccccc1F` (mixture of isomers) [Example 28, 5-[4-(2,3-Dihydrobenzo[1,4]dioxin-5-yl)piperazin-1-yl]-3-(2-fluorophenyl)-pentan-2-one O-methyloxime], the Ki is 1.33 nM.

With `COc1ccccc1N1CCN(CC[C@@H](c2ccccc2F)[C@H](N)C2CCCCC2)CC1` (racemic) [Example 5a, (RS,SR)-1-Cyclohexyl-2-(2-fluorophenyl)-4-[4-(2-methoxyphenyl)-piperazin-1-yl]butylamine], the Ki amounted to 0.48 nM. Under `COc1ccccc1N1CCN(CC[C@H](c2ccccc2F)[C@H](N)C2CCCCC2)CC1` (racemic) [Example 5b, (RS,RS)-1-Cyclohexyl-2-(2-fluorophenyl)-4-[4-(2-methoxyphenyl)-piperazin-1-yl]butylamine] stands 0.77 nM; under `COc1ccccc1N1CCN(CC[C@H](c2ccccc2F)[C@H](NC(C)=O)C2CCCCC2)CC1` (racemic) [Example 9, N-{(RS,RS)-1-Cyclohexyl-2-(2-fluorophenyl)-4-[4-(2-methoxyphenyl)-piperazin-1-yl]butyl}acetamide], 1.4 nM; under `COc1ccccc1N1CCN(CC[C@@H](c2ccccc2F)[C@H](NC(C)C)C2CCCCC2)CC1` (racemic) [Example 12, (RS,SR)-{1-Cyclohexyl-2-(2-fluorophenyl)-4-[4-(2-methoxyphenyl)-piperazin-1-yl]butyl}isopropylamine], 0.99 nM. The same measure for `COc1ccccc1N1CCN(CC[C@@H](c2ccccc2F)[C@H](NCc2ccco2)C2CCCCC2)CC1` (racemic) [Example 14, {(RS,SR)-1-Cyclohexyl-2-(2-fluorophenyl)-4-[4-(2-methoxyphenyl)-piperazin-1-yl]butyl}furan-2-ylmethylamine]: 0.42 nM; for `COc1ccccc1N1CCN(CC[C@@H](c2ccccc2F)[C@H](NC(N)=O)C2CCCCC2)CC1` (racemic) [Example 18, {(RS,SR)-1-Cyclohexyl-2-(2-fluorophenyl)-4-[4-(2-methoxyphenyl)-piperazin-1-yl]butyl}urea]: 1.84 nM. Turning to `CNC(=O)N[C@H](C1CCCCC1)[C@@H](CCN1CCN(c2ccccc2OC)CC1)c1ccccc1F` (racemic) [Example 19, 1-{(RS,SR)-1-Cyclohexyl-2-(2-fluorophenyl)-4-[4-(2-methoxyphenyl)-piperazin-1-yl]butyl}-3-methylurea], the Ki was found to be 2.09 nM. With `COc1ccccc1N1CCN(CC[C@@H](c2ccccc2F)[C@@H](C2CCCCC2)N(C)C(=O)N(C)C)CC1` (racemic) [Example 22, 1-{(RS,SR)-1-Cyclohexyl-2-(2-fluorophenyl)-4-[4-(2-methoxyphenyl)-piperazin-1-yl]butyl}-1,3,3-trimethylurea], the inhibition constant Ki stood at 1.24 nM. Turning to `CNC(=S)N[C@H](C1CCCCC1)[C@@H](CCN1CCN(c2ccccc2OC)CC1)c1ccccc1F` (racemic) [Example 23, 1-{(RS,SR)-1-Cyclohexyl-2-(2-fluorophenyl)-4-[4-(2-methoxyphenyl)-piperazin-1-yl]butyl}-3-methylthiourea], the Ki amounted to 0.58 nM. With `CO/N=C(\C1CCCCC1)C(CCN1CCN(c2cccc3c2OCCO3)CC1)c1ccccc1C#N` (racemic) [Example 26, (R,S)-2-{1′-{Cyclohexyl-[(E)-methoxyimino]methyl}-3-[4-(2,3-dihydrobenzo[1,4]dioxin-5-yl)-piperazin-1-yl]propyl}benzonitrile], the inhibition constant (Ki) worked out at 0.38 nM. As for `N[C@H](C1CCCCC1)[C@@H](CCN1CCN(c2cccc3c2OCCO3)CC1)c1ccccc1F` (racemic) [Example 38, (RS,SR)-1-Cyclohexyl-4-[4-(2,3-dihydrobenzo[1,4]dioxin-5-yl)-piperazin-1-yl]-2-(2-fluorophenyl)butylamine], the Ki was determined as 0.8 nM. For the compound `COc1ccccc1N1CCN(CC[C@@H](c2ccccc2F)[C@H](N)C2CCCCC2)CC1` (single isomer, unassigned) [Example 5aA, (1R,2S) or (1S,2R)-1-Cyclohexyl-2-(2-fluorophenyl)-4-[4-(2-methoxyphenyl)piperazin-1-yl]butylamine], the Ki was found to be 0.6 nM. On to `COc1ccccc1N1CCN(CC[C@H](c2ccccc2F)[C@@H](N)C2CCCCC2)CC1` (single isomer, unassigned) [Example 5aB, (1S,2R) or (1R,2S)-1-Cyclohexyl-2-(2-fluorophenyl)-4-[4-(2-methoxyphenyl)piperazin-1-yl]butylamine], for which the Ki came to 1.2 nM.

In the case of `COc1ccccc1N1CCN(CC[C@H](c2ccccc2F)[C@@H](NC(=S)N(C)C)C2CCCCC2)CC1` (single isomer, unassigned) [Example 24B, 3-{(1S,2R) or (1R,2S)-1-Cyclohexyl-2-(2-fluorophenyl)-4-[4-(2-methoxyphenyl)piperazin-1-yl]butyl}-1,1-dimethylthiourea], the Ki came out at 4.2 nM. For `CON=C(C1CCCCC1)C(CCN1CCN(c2ccccc2OC)CC1)c1ccccc1F` (stereo not shown) [Example 2, 1-Cyclohexyl-2-(2-fluorophenyl)-4-[4-(2-methoxyphenyl)-piperazin-1-yl]butan-1-one O-methyloxime], the Ki was 1.9 nM. As to `COc1ccccc1N1CCN(CCC(C(=NOC(C)=O)C2CCCCC2)c2ccccc2F)CC1` (stereo not shown) [Example 3, 1-Cyclohexyl-2-(2-fluorophenyl)-4-[4-(2-methoxyphenyl)-piperazin-1-yl]butan-1-one O-acetyl oxime], the Ki is 0.87 nM. For `COc1ccccc1N1CCN(CCC(c2ccccc2F)C(NC=O)C2CCCCC2)CC1` (stereo not shown) [Example 6, N-{1-Cyclohexyl-2-(2-fluorophenyl)-4-[4-(2-methoxyphenyl)-piperazin-1-yl]butyl}formamide], the Ki was 1.2 nM. For `CNC(C1CCCCC1)C(CCN1CCN(c2ccccc2OC)CC1)c1ccccc1F` (stereo not shown) [Example 10a], the Ki stood at 0.49 nM. On to `CNC(C1CCCCC1)C(CCN1CCN(c2ccccc2OC)CC1)c1ccccc1F` (stereo not shown) [Example 10b], for which the inhibition constant Ki was 1.41 nM. Regarding `COc1ccccc1N1CCN(CCC(c2ccccc2F)C(C2CCCCC2)N(Cc2ccco2)Cc2ccco2)CC1` (stereo not shown) [Example 15], the Ki was 7.28 nM. Turning to `COc1ccccc1N1CCN(CCC(c2ccccc2F)C(NC(=O)N2CCOCC2)C2CCCCC2)CC1` (stereo not drawn) [Example 20, 1-{(RS,SR)-1-Cyclohexyl-2-(2-fluorophenyl)-4-[4-(2-methoxyphenyl)-piperazin-1-yl]butyl}morpholine-4-carboxamide], the inhibitory constant (Ki) worked out at 2.9 nM. The same measure for `CC(=NO)C(CCN1CCN(c2cccc3c2OCCO3)CC1)c1ccccc1F` (stereo not shown) [Example 27, E(Z)-5-[4-(2,3-Dihydrobenzo[1,4]dioxin-5-yl)piperazin-1-yl]-3-(2-fluorophenyl)pentan-2-one oxime]: 1.77 nM.

With `CC(=NO)C(CCN1CCN(c2ccccc2OCC(F)(F)F)CC1)c1ccccc1F` (stereo not shown) [Example 31, E(Z)-3-(2-Fluorophenyl)-5-{4-[2-(2,2,2-trifluoroethoxy)phenyl]-piperazin-1-yl}pentan-2-one oxime], the Ki was determined as 6.03 nM. With `CON=C(C)C(CCN1CCN(c2ccccc2OCC(F)(F)F)CC1)c1ccccc1F` (stereo not shown) [Example 32, E(Z)-3-(2-Fluorophenyl)-5-{4-[2-(2,2,2-trifluoroethoxy)phenyl]-piperazin-1-yl}pentan-2-one O-methyloxime], the Ki came out at 2.24 nM.
